Series [1] has as its system PLC-PRF-5. As to the kind of experiment: Antiproliferative activity against human PLC-PRF-5 cells after 48 hrs by MTT assay. Particulars: PLC-PRF-5, 48 h. For orientation: Tetrazolium dyes change colour on reduction, which living cells bring about.
In series [2] the test system is U-266. The experiment in a line: Antiproliferative activity against human U266 cells after 48 hrs by MTT assay. Particulars: U-266, 48 h.
Series [3] is described as follows: Antiproliferative activity against human 3AO cells after 48 hrs by MTT assay.
Series [4] in a line: Antiproliferative activity against human ES2 cells after 48 hrs by MTT assay. As to conditions: ES-2, 48 h.
The subject of series [5] is MDA-MB-231. As to the kind of experiment: Antiproliferative activity against human MDA-MB-231 cells after 48 hrs by MTT assay. As to conditions: MDA-MB-231, 48 h.
Series [6] addresses T1, Aminopeptidase N (Sus scrofa, UniProt P15145).
T1 sequence (P15145 whole entry): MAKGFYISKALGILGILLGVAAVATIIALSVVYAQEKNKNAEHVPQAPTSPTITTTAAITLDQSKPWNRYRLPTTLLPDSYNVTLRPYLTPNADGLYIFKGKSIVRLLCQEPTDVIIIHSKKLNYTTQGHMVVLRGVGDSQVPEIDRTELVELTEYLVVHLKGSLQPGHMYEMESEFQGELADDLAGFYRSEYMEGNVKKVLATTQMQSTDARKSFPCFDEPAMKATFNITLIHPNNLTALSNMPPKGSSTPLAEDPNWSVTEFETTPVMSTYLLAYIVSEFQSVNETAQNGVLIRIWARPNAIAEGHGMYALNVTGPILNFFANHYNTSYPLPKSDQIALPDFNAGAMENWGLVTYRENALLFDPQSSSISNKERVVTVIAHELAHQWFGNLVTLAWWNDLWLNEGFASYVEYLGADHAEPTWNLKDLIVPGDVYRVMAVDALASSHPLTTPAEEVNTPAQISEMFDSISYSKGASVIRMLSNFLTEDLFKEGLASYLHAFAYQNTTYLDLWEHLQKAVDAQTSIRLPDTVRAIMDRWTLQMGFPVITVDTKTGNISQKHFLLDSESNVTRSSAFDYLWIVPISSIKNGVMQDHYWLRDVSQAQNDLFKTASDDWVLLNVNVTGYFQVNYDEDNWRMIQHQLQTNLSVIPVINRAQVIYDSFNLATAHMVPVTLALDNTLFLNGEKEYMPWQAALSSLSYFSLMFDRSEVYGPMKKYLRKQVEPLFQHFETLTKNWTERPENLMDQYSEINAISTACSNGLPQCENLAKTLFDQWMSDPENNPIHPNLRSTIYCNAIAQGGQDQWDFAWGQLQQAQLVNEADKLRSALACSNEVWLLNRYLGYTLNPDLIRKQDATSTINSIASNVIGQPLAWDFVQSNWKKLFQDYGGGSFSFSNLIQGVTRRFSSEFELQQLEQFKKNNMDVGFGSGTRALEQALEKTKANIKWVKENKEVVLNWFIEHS
The experiment in a line: Inhibition of porcine kidney microsomal CD13 using L-leucine-p-nitroanilide as substrate preincubated for 5 mins followed by substrate addition and measured after 30 mins by microplate reader analysis. In kind it is microsomes, Microsome.

Series [7] deals with KG-1. The experiment in a line: Antiproliferative activity against human KG1 cells after 48 hrs by MTT assay. Particulars: KG-1, 48 h.
For series [8], the system named is L02. As to the kind of experiment: Antiproliferative activity against human HL7702 cells after 48 hrs by MTT assay. As to conditions: L02, 48 h.
The test system of series [9] is PLC-PRF-5. As to the kind of experiment: Inhibition of colony formation in human PLC-PRF-5 cells assessed as reduction in number of colonies at 0.2 uM after 2 weeks by Giemsa staining based inverted microscopic analysis. In kind it is functional, cell-based.
The subject of series [10] is PLC-PRF-5. As to the kind of experiment: Induction of apoptosis in human PLC-PRF-5 cells assessed as late apoptotic cells at 2 uM after 48 hrs by Annexin V-FITC/propidium iodide staining-based flow cytometric analysis (reference value: 8.7 %). In kind it is functional. (Flow cytometry measures light scatter and fluorescence of single cells or particles in a stream.)

Series [11] relates to PLC-PRF-5. The experiment in a line: Induction of apoptosis in human PLC-PRF-5 cells assessed as necrotic cells at 2 uM after 48 hrs by Annexin V-FITC/propidium iodide staining-based flow cytometric analysis (reference value: 6.1 %). Type of series: functional.
The subject of series [12] is HUVEC. As to the kind of experiment: Antiangiogenic activity in HUVEC assessed as inhibition of capillary like tubular formation at 30 uM after 8 hrs by matrigel based tube formation assay. In kind it is functional. Particulars: Homo sapiens.
The test system of series [13] is Aorta. As to the kind of experiment: Antiangiogenic activity in Wistar rat thoracic aortic rings assessed as decrease in number of microvessels sprouting at 20 ug/ml treated every other day for 9 days. As to conditions: dose 20.0 µg/ml, time 9.0 day. In kind it is functional, tissue-based.
A short description of series [14]: Prodrug conversion in human plasma assessed as release of active metabolites GEM and Ube measured within 120 mins at 37 degC by HPLC analysis. Type of series: ADME, cell-free. Particulars: 2 h.
For series [15], the system named is H22. The experiment in a line: Antitumor activity against mouse H22 cells transplanted in Kunming mouse assessed as tumor growth inhibition at 25 mg/kg, po administered every 4 days for 4 doses. Particulars: time 4.0 day. Type of series: functional, organism-based.
For series [16], the system named is PLC-PRF-5. As to the kind of experiment: Antitumor activity against human PLC-PRF-5 cells xenografted in BALB/c nude mouse assessed as inhibition of tumor growth by measuring T/C ratio at 25 mg/kg, po. In kind it is functional. For orientation: In xenograft studies the graft and the host belong to different species.
In series [17] the test system is HepG2. Particulars: Homo sapiens, dose 25.0 mg/kg.
Description: Antitumor activity against human HepG2 cells xenografted in BALB/c nude mouse assessed as inhibition of tumor growth at 25 mg/kg, po
Series [18] deals with U-937. The experiment in a line: cells. As to conditions: Homo sapiens, U-937, 48 h.
Description: Antiproliferative activity against human U937 cells after 48 hrs by MTT assay
Series [19] concerns PC-3. As to the kind of experiment: cells. Particulars: Homo sapiens, PC-3, 48 h.
Description: Antiproliferative activity against human PC-3 cells after 48 hrs by MTT assay
Series [20] has as its system HEL. The experiment in a line: cells. As to conditions: Homo sapiens, 48 h.
Description: Antiproliferative activity against human HEL cells after 48 hrs by MTT assay
Series [21] deals with A549. As to the kind of experiment: cells. As to conditions: Homo sapiens, A549, 48 h.
For series [22], the system named is HeLa. As to the kind of experiment: cells. Particulars: Homo sapiens, 48 h.
Series [23] relates to K562. As to the kind of experiment: cells. As to conditions: Homo sapiens, K562, 48 h.
For series [24], the system named is H22. As to the kind of experiment: Antitumor activity against mouse H22 cells transplanted in Kunming mouse assessed as tumor growth inhibition at 25 mg/kg, ip administered every 4 days for 4 doses. Type of series: functional, organism-based. As to conditions: time 4.0 day.
Series [25] concerns PLC-PRF-5. The experiment in a line: Antitumor activity against human PLC-PRF-5 cells xenografted in BALB/c nude mouse assessed as inhibition of tumor growth by measuring T/C ratio at 25 mg/kg, ip. Type of series: functional.

pIC50: −log10 of the molar value. Active and inactive are the calls of the source. The calls are words filed in the database; no cut-off is given here.

On to `CC(C)C[C@H](NC(=O)[C@@H](O)[C@H](N)Cc1ccccc1)C(=O)Nc1ccn([C@@H]2O[C@H](CO)[C@@H](O)C2(F)F)c(=O)n1.Cl`, for which the pIC50 in series [1] was 5.85; in series [2] it was 6.59; in series [3], 5.01; in series [4], 6.55; in series [5] it was 5.81; in series [6], 5.06. Moreover, the pIC50 in [7] is 6.09; in series [8], 4.66; in series [18], 7.10; in series [19], 6.59; in series [20], 6.21; in [21], 6.18. Also, the pIC50 was 5.26 in series [22] and 6.89 in [23]. In addition, the outcome in series [9] and in series [13] was Active. Further, the Activity in series [10] is 18.4%; in [11], 10.7%. In addition, the inhibition at 30 µM in [12] was determined as 100%. Moreover, in [14], the Drug metabolism entry was “Metabolite_Detected”. Also, in series [15], the “growth inhibition (GI)” value was “Active”. Besides, the T/C in series [16] came to 51%. The inhibition entry in series [17] was “Active”.

For `Nc1ccn([C@@H]2O[C@H](CO)[C@@H](O)C2(F)F)c(=O)n1` [GEMCITABINE], the pIC50 in series [1] was 5.82; in [2], 6.66; in [3] it was 5.24; in [4], 6.28; in series [5] it was 5.78; in series [7], 6.07. The pIC50 in series [8] was 5.27; in series [18] it was 7.15; in [19] it was 6.66; in series [20], 6.32; in series [21] it was 6.59; in [22], 5.56. Moreover, the pIC50 in series [23] was 6.96. The Activity in series [10] amounted to 18%; in series [11], 25%. The “growth inhibition (GI)” value in [24] was “Active”. Further, in series [25], the T/C was found to be 54%.

On to `CC(C)C[C@H](NC(=O)[C@@H](O)[C@H](N)Cc1ccccc1)C(=O)O` [UBENIMEX], for which the pIC50 in series [1], in series [2], in series [3], in series [4], in [5] and in series [7] was < 3.30 throughout. Further, the negative-log IC50 (pIC50) in series [20] and in [22] was < 3.30 in each case. For the same compound, the results for the Activity in series [10] and in [11] were 11% and 7.1%, respectively.

As usually defined, the pIC50 is the IC50 on a negative log10 scale, so that one unit is a factor of ten. A word on the inhibition: it is how much of the control response was suppressed. What is called T/C is the ratio of treated to control.
